According to publication PMC9601927 (Foods, 2022):

Assays:
GLUT2 = assay: Western blot of GLUT2 expression in Caco-2 cells after siRNA transfection and incubation; assay type: cell-based
Procedure: Firstly, the cells were washed twice with 1 mL of cold PBS and then lysed in 100 μL of ice-cold RIPA lysis buffer. Western blot analysis was performed following the previous method with minor modifications. Briefly, total protein samples were resolved by SDS-PAGE (8%, 10%, or 12%) and transferred to PVDF membranes blocked with 5% nonfat milk powder in TBST; these were then incubated with 8 μg of primary antibody at a dilution of 1:1000/500 (v/v) overnight at 4 °C. Detection was performed with 10 mL of ECL and oxidizing reagent and equal amounts of HRP-conjugated anti-mouse at a 1:5000 (v/v) dilution rate. To further illustrate the effect of FA-g-CS on the transmembrane transport of ANC, the Caco-2 cells were transfected with siRNA targeted to sGLT1 and GLUT2 (the optimal interference fragments screened by previous tests) and then incubated with FA-g-CS, ANC, or their combinations. Finally, the expressions of sGLT1 and GLUT2 were detected using a Western blot assay.

[1] = ANC transmembrane transport across Caco-2 cell monolayer (Transwell, HPLC); assay type: in vitro ADME; settings: human, Caco-2
Procedure: (§1) In this work, we utilized and slightly modified a procedure from Zou et al. to perform ANC transport studies. Firstly, ANC commercial powder was pre-dissolved in ultra-pure water and phosphate-buffered solution (PBS, pH7.4) was used for FA-g-CS dissolving. Then, pre-warmed phosphate-buffered saline (PBS) was used to wash and equilibrate the Transwell. Subsequently, the transport buffer containing ANC was added to the basolateral (1.5 mL) or the apical (0.5 mL) side of the inserts, while the corresponding volume of transport buffer was added to the receiving container. Samples measuring 50 uL were taken after 1, 2, 3, and 4 h incubation, and the same amount of pre-warmed PBS was replenished immediately. The samples were treated with HCl and frozen until HPLC analysis. The ANC-absorption-enhancing studies with FA-g-CS across Caco-2 cells were conducted using a transport buffer containing FA-g-CS+ANC instead of ANC alone.
(§2) Transport efficiency (A→B (%)) was calculated according to the following formula: (concentrations of the compound at basolateral side overtime)/(concentrations of the compound at the apical side at zero hours) × 100. The apparent permeability coefficient (Papp) was defined as follows: Papp = (dQ/dt)(1/[AC0]); here, A represents the surface area of the Transwell, C0 represents the compound concentration added in the apical side, and the transport rate of the compound over time is denoted by dQ/dt.

Caco-2 cell monolayer = assay: as above; assay type: in vitro ADME; settings: for Transport Efficiency A→B (%) with FA-g-CS Co-Treatment: with 5 × 10^−5 mg/mL FA-g-CS
Procedure: as §1, §2

OC[C@H]1O[C@@H](Oc2cc3c(O)cc(O)cc3[o+]c2-c2ccc(O)c(O)c2)[C@H](O)[C@@H](O)[C@@H]1O [ANC, Cyanidin-3-glucoside]
expression of GLUT2 compared with the blank (GLUT2; cells treated with nonrelated and scrambled siRNA): significantly elevated
expression level of GLUT2 compared with the blank control (GLUT2; cells treated with siRNA transfection): significantly increased
increased GLUT2 expression (GLUT2; siRNA-transfected Caco-2 cells incubated with compounds (abstract)): < 60%
Papp A→B at 4 h, 0.05 ×10^−3 mg/mL ([1]; ANC 0.05 ×10^−3 mg/mL, 4 h): 0.491 ± 0.058 ×10⁻⁶ cm/s
Papp B→A at 4 h, 0.05 ×10^−3 mg/mL ([1]; ANC 0.05 ×10^−3 mg/mL, 4 h): 0.378 ± 0.048 ×10⁻⁶ cm/s
efflux ratio at 4 h, 0.05 ×10^−3 mg/mL ([1]; ANC 0.05 ×10^−3 mg/mL, 4 h, read-out: Papp (B→A)/ Papp (A→B)): 0.77
Papp A→B at 4 h, 0.1 ×10^−3 mg/mL ([1]; ANC 0.10 ×10^−3 mg/mL, 4 h): 0.961 ± 0.048 ×10⁻⁶ cm/s
Papp B→A at 4 h, 0.1 ×10^−3 mg/mL ([1]; ANC 0.10 ×10^−3 mg/mL, 4 h): 0.719 ± 0.098 ×10⁻⁶ cm/s
efflux ratio at 4 h, 0.1 ×10^−3 mg/mL ([1]; ANC 0.10 ×10^−3 mg/mL, 4 h, read-out: Papp (B→A)/ Papp (A→B)): 0.75
Papp A→B at 4 h, 0.15 ×10^−3 mg/mL ([1]; ANC 0.15 ×10^−3 mg/mL, 4 h): 1.5 ± 0.523 ×10⁻⁶ cm/s
Papp B→A at 4 h, 0.15 ×10^−3 mg/mL ([1]; ANC 0.15 ×10^−3 mg/mL, 4 h): 1.94 ± 0.908 ×10⁻⁶ cm/s
efflux ratio at 4 h, 0.15 ×10^−3 mg/mL ([1]; ANC 0.15 ×10^−3 mg/mL, 4 h, read-out: Papp (B→A)/ Papp (A→B)): 1.29
Papp A→B at 4 h, 0.2 ×10^−3 mg/mL ([1]; ANC 0.20 ×10^−3 mg/mL, 4 h): 1.12 ± 0.108 ×10⁻⁶ cm/s
Papp B→A at 4 h, 0.2 ×10^−3 mg/mL ([1]; ANC 0.20 ×10^−3 mg/mL, 4 h): 1.48 ± 0.048 ×10⁻⁶ cm/s
efflux ratio at 4 h, 0.2 ×10^−3 mg/mL ([1]; ANC 0.20 ×10^−3 mg/mL, 4 h, read-out: Papp (B→A)/ Papp (A→B)): 1.32
Papp at 4 h ([1]; ANC alone, overall statement): < 1 ×10⁻⁶ cm/s
Transport Efficiency A→B (%) with FA-g-CS Co-Treatment (Caco-2 cell monolayer; ANC 0.05 ×10^−3 mg/mL, 4 h): 1%
Transport Efficiency A→B (%) without FA-g-CS (Caco-2 cell monolayer; ANC 0.05 ×10^−3 mg/mL, 4 h): 0.81%
Transport Efficiency A→B (%) with FA-g-CS Co-Treatment (Caco-2 cell monolayer; ANC 0.10 ×10^−3 mg/mL, 4 h): 2.1%
Transport Efficiency A→B (%) without FA-g-CS (Caco-2 cell monolayer; ANC 0.10 ×10^−3 mg/mL, 4 h): 1.15%
Transport Efficiency A→B (%) with FA-g-CS Co-Treatment (Caco-2 cell monolayer; ANC 0.15 ×10^−3 mg/mL, 4 h): 2.3%
Transport Efficiency A→B (%) without FA-g-CS (Caco-2 cell monolayer; ANC 0.15 ×10^−3 mg/mL, 4 h): 1.18%
Transport Efficiency A→B (%) with FA-g-CS Co-Treatment (Caco-2 cell monolayer; ANC 0.20 ×10^−3 mg/mL, 4 h): 1.65%
Transport Efficiency A→B (%) without FA-g-CS (Caco-2 cell monolayer; ANC 0.20 ×10^−3 mg/mL, 4 h): 0.96%
Concentrations of ANC at the Basolateral Side (Caco-2 cell monolayer; apical ANC 0.05 ×10^−3 mg/mL, in presence of 0.05 × 10^−3 mg/mL FA-g-CS, 1 h): 0.0003 ± 0.00001 b ×10^−3 mg/mL
Concentrations of ANC at the Basolateral Side (Caco-2 cell monolayer; apical ANC 0.05 ×10^−3 mg/mL, in presence of 0.05 × 10^−3 mg/mL FA-g-CS, 2 h): 0.0004 ± 0.00001 c ×10^−3 mg/mL
Concentrations of ANC at the Basolateral Side (Caco-2 cell monolayer; apical ANC 0.05 ×10^−3 mg/mL, in presence of 0.05 × 10^−3 mg/mL FA-g-CS, 3 h): 0.0004 ± 0.00001 c ×10^−3 mg/mL
Concentrations of ANC at the Basolateral Side (Caco-2 cell monolayer; apical ANC 0.05 ×10^−3 mg/mL, in presence of 0.05 × 10^−3 mg/mL FA-g-CS, 4 h): 0.0005 ± 0.00001 d ×10^−3 mg/mL
Concentrations of ANC at the Basolateral Side (Caco-2 cell monolayer; apical ANC 0.05 ×10^−3 mg/mL, without FA-g-CS co-treatment, 1 h): 0.0001 ± 0.00001 a ×10^−3 mg/mL
Concentrations of ANC at the Basolateral Side (Caco-2 cell monolayer; apical ANC 0.05 ×10^−3 mg/mL, without FA-g-CS co-treatment, 2 h): 0.0003 ± 0.00001 b ×10^−3 mg/mL
Concentrations of ANC at the Basolateral Side (Caco-2 cell monolayer; apical ANC 0.05 ×10^−3 mg/mL, without FA-g-CS co-treatment, 3 h): 0.0004 ± 0.00001 c ×10^−3 mg/mL
Concentrations of ANC at the Basolateral Side (Caco-2 cell monolayer; apical ANC 0.05 ×10^−3 mg/mL, without FA-g-CS co-treatment, 4 h): 0.0004 ± 0.00001 c ×10^−3 mg/mL
Concentrations of ANC at the Basolateral Side (Caco-2 cell monolayer; apical ANC 0.10 ×10^−3 mg/mL, in presence of 0.05 × 10^−3 mg/mL FA-g-CS, 1 h): 0.0010 ± 0.0001 bc ×10^−3 mg/mL
Concentrations of ANC at the Basolateral Side (Caco-2 cell monolayer; apical ANC 0.10 ×10^−3 mg/mL, in presence of 0.05 × 10^−3 mg/mL FA-g-CS, 2 h): 0.0010 ± 0.0002 bc ×10^−3 mg/mL
Concentrations of ANC at the Basolateral Side (Caco-2 cell monolayer; apical ANC 0.10 ×10^−3 mg/mL, in presence of 0.05 × 10^−3 mg/mL FA-g-CS, 3 h): 0.0019 ± 0.0001 d ×10^−3 mg/mL
Concentrations of ANC at the Basolateral Side (Caco-2 cell monolayer; apical ANC 0.10 ×10^−3 mg/mL, in presence of 0.05 × 10^−3 mg/mL FA-g-CS, 4 h): 0.0021 ± 0.0002 d ×10^−3 mg/mL
Concentrations of ANC at the Basolateral Side (Caco-2 cell monolayer; apical ANC 0.10 ×10^−3 mg/mL, without FA-g-CS co-treatment, 1 h): 0.0004 ± 0.00002 a ×10^−3 mg/mL
Concentrations of ANC at the Basolateral Side (Caco-2 cell monolayer; apical ANC 0.10 ×10^−3 mg/mL, without FA-g-CS co-treatment, 2 h): 0.0008 ± 0.00001 b ×10^−3 mg/mL
Concentrations of ANC at the Basolateral Side (Caco-2 cell monolayer; apical ANC 0.10 ×10^−3 mg/mL, without FA-g-CS co-treatment, 3 h): 0.0009 ± 0.00001 b ×10^−3 mg/mL
Concentrations of ANC at the Basolateral Side (Caco-2 cell monolayer; apical ANC 0.10 ×10^−3 mg/mL, without FA-g-CS co-treatment, 4 h): 0.0012 ± 0.00002 c ×10^−3 mg/mL
Concentrations of ANC at the Basolateral Side (Caco-2 cell monolayer; apical ANC 0.15 ×10^−3 mg/mL, in presence of 0.05 × 10^−3 mg/mL FA-g-CS, 1 h): 0.0017 ± 0.0002 c ×10^−3 mg/mL
Concentrations of ANC at the Basolateral Side (Caco-2 cell monolayer; apical ANC 0.15 ×10^−3 mg/mL, in presence of 0.05 × 10^−3 mg/mL FA-g-CS, 2 h): 0.0025 ± 0.0002 d ×10^−3 mg/mL
Concentrations of ANC at the Basolateral Side (Caco-2 cell monolayer; apical ANC 0.15 ×10^−3 mg/mL, in presence of 0.05 × 10^−3 mg/mL FA-g-CS, 3 h): 0.0030 ± 0.0001 e ×10^−3 mg/mL
Concentrations of ANC at the Basolateral Side (Caco-2 cell monolayer; apical ANC 0.15 ×10^−3 mg/mL, in presence of 0.05 × 10^−3 mg/mL FA-g-CS, 4 h): 0.0035 ± 0.0001 f ×10^−3 mg/mL
Concentrations of ANC at the Basolateral Side (Caco-2 cell monolayer; apical ANC 0.15 ×10^−3 mg/mL, without FA-g-CS co-treatment, 1 h): 0.0006 ± 0.00001 a ×10^−3 mg/mL
Concentrations of ANC at the Basolateral Side (Caco-2 cell monolayer; apical ANC 0.15 ×10^−3 mg/mL, without FA-g-CS co-treatment, 2 h): 0.0009 ± 0.00002 b ×10^−3 mg/mL
Concentrations of ANC at the Basolateral Side (Caco-2 cell monolayer; apical ANC 0.15 ×10^−3 mg/mL, without FA-g-CS co-treatment, 3 h): 0.0010 ± 0.0003 b ×10^−3 mg/mL
Concentrations of ANC at the Basolateral Side (Caco-2 cell monolayer; apical ANC 0.15 ×10^−3 mg/mL, without FA-g-CS co-treatment, 4 h): 0.0018 ± 0.00001 c ×10^−3 mg/mL
Concentrations of ANC at the Basolateral Side (Caco-2 cell monolayer; apical ANC 0.20 ×10^−3 mg/mL, in presence of 0.05 × 10^−3 mg/mL FA-g-CS, 1 h): 0.0020 ± 0.0001 c ×10^−3 mg/mL
Concentrations of ANC at the Basolateral Side (Caco-2 cell monolayer; apical ANC 0.20 ×10^−3 mg/mL, in presence of 0.05 × 10^−3 mg/mL FA-g-CS, 2 h): 0.0023 ± 0.0002 d ×10^−3 mg/mL
Concentrations of ANC at the Basolateral Side (Caco-2 cell monolayer; apical ANC 0.20 ×10^−3 mg/mL, in presence of 0.05 × 10^−3 mg/mL FA-g-CS, 3 h): 0.0032 ± 0.0001 e ×10^−3 mg/mL
Concentrations of ANC at the Basolateral Side (Caco-2 cell monolayer; apical ANC 0.20 ×10^−3 mg/mL, in presence of 0.05 × 10^−3 mg/mL FA-g-CS, 4 h): 0.0033 ± 0.0001 e ×10^−3 mg/mL
Concentrations of ANC at the Basolateral Side (Caco-2 cell monolayer; apical ANC 0.20 ×10^−3 mg/mL, without FA-g-CS co-treatment, 1 h): 0.0007 ± 0.00001 a ×10^−3 mg/mL
Concentrations of ANC at the Basolateral Side (Caco-2 cell monolayer; apical ANC 0.20 ×10^−3 mg/mL, without FA-g-CS co-treatment, 2 h): 0.001 ± 0.0002 b ×10^−3 mg/mL
Concentrations of ANC at the Basolateral Side (Caco-2 cell monolayer; apical ANC 0.20 ×10^−3 mg/mL, without FA-g-CS co-treatment, 3 h): 0.0012 ± 0.0001 b ×10^−3 mg/mL
Concentrations of ANC at the Basolateral Side (Caco-2 cell monolayer; apical ANC 0.20 ×10^−3 mg/mL, without FA-g-CS co-treatment, 4 h): 0.0019 ± 0.0001 c ×10^−3 mg/mL
